Source: patent publication US20240116910A1, “Heterocycles as WIP1 Inhibitors” (PMV Pharmaceuticals, Inc., priority 2022, published 2024)

Tests used:
[1] = target: recombinant His-tag Wip1 full length protein (amino acids #1-605) (Homo sapiens (Human), UniProt O15297); assay: Wip1 full length phosphatase enzyme FDP assay; type: biochemical; conditions: fluorescein diphosphate (FDP) substrate, RT 2 hours, fluorescence Ex485/Em535
Procedure: The Human Wip1 (2-420, aa 2-420) or Wip1 full length (aa 1-605) DNA sequence was codon optimized and synthesized by Genscript for insect cell expression. The open reading frame of Wip1(2-420) with a N-terminal-His6 affinity tag followed by a TEV cleavage site was subcloned sites into the pFastBac1 expression vector. The recombinant bacmid DNA was transfected in Sf9 insect cells for baculovirus production. After 72 hours infection, the Sf9 cells were harvested by centrifugation and resuspended in lysis buffer containing 50 mM Tris/HCl, pH 8.0, 500 mM NaCl, 20% glycerol, Benzonase 0.5% CHAPS and Roche cOmplete™ EDTA free protease inhibitors. Cells were disrupted with microfluidizer and the debris was removed by centrifugation at 185,000 g for 1 hour. The supernatant was subjected to HisTrap FF for affinity purification. Proteins were eluted with a linear gradient of 0-500 mM imidazole in HisTrap buffer containing 50 mM Tris/HCl, pH 8.0, 500 mM NaCl and 20% glycerol, 0.05% CHAPS. The eluted protein was dialyzed against dialysis buffer (20 mM MES, 100 mM NaCl, 20% glycerol, 0.5 mM TCEP, 0.05% CHAPS) followed purification via HiTrap SP HP column. The protein was eluted with a gradient of 100 mM-2 M NaCl in dialysis buffer. His6-[…] was finally concentrated and loaded onto a size-exclusion column (NiLoad 16/600 Superdex 200 pg, GE Healthcare) pre-equilibrated with 50 mM MOPS (pH 7.5), 200 mM NaCl, 20% glycerol, 1 mM TCEP, 0.05% CHAPS and 0.1 mM EGTA. The peak fractions containing purified Nis6-Wip1(2-420) were pooled and concentrated to 1.0 mg/mL and flash frozen at −80° C.
Wip1 Length and Wip1(2-420) Phosphatase Enzyme FDP Assays.
Test compounds (252 mM stock in DMSO) were diluted 3 folds in series in DMSO and 1.2 μl per well were added into 384-well polypropylene black plates (Nunc). Twelve μl per well of Assay Buffer (100 mM NaCl, 50 mM MOPS, pH 7.5, 0.8 mM CHAPS, 0.1 mM EGTA, 30 mM MgCl2, 0.3 mM TCEP, 0.2 mg/mL BSA) was added followed by […] per well of 50.4 nM recombinant His-tag Wip1 full length protein (amino acids #1-605) or recombinant His-tag Wip1(2-420) protein (amino acids #2-420) in Assay Buffer and the plate was incubated at RT (22° C.) for 5 min. Ten mM of fluorescein diphosphate (FDP) in DMSO was diluted to […] in Assay Buffer and […] per well was added to the plate and incubated at RT (22° C.) for 2 hours. […] per well of 64.1 mM EDTA in water were added to stop the enzyme reaction. The plate was centrifuged at 1,200 rpm (Eppendorf 5810R Plate centrifuge) for 1 minute and fluorescence intensity (Ex485/Em535) was measured on Perkin Elmer Victor Reader. EC50 values were calculated using either Prism (GraphPad) or ActivityBase software (IDBS), The IC50 results are provided in Table M.

[2] = target: recombinant His-tag Wip1(2-420) protein (amino acids #2-420) (Homo sapiens (Human), UniProt O15297); assay: Wip1(2-420) phosphatase enzyme FDP assay; type: biochemical; conditions: fluorescein diphosphate (FDP) substrate, RT 2 hours, fluorescence Ex485/Em535; read-out: WIP1 (Truncated 2-420) FDP Assay: IC50
Sequence of recombinant His-tag Wip1(2-420) protein (amino acids #2-420) (O15297 2-420): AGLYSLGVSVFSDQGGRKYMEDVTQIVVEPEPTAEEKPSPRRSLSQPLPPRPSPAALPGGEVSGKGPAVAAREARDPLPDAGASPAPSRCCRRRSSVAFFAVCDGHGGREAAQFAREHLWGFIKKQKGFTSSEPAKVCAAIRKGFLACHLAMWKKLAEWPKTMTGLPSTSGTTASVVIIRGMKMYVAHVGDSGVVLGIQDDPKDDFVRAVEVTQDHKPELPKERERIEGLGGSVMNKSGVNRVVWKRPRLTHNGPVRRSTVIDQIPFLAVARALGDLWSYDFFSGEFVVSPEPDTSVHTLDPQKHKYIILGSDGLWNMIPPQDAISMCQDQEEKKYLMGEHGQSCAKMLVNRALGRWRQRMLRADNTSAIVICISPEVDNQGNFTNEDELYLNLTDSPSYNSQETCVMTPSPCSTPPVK

Sequence of recombinant His-tag Wip1 full length protein (amino acids #1-605) (O15297 whole entry, the tested form may be a part): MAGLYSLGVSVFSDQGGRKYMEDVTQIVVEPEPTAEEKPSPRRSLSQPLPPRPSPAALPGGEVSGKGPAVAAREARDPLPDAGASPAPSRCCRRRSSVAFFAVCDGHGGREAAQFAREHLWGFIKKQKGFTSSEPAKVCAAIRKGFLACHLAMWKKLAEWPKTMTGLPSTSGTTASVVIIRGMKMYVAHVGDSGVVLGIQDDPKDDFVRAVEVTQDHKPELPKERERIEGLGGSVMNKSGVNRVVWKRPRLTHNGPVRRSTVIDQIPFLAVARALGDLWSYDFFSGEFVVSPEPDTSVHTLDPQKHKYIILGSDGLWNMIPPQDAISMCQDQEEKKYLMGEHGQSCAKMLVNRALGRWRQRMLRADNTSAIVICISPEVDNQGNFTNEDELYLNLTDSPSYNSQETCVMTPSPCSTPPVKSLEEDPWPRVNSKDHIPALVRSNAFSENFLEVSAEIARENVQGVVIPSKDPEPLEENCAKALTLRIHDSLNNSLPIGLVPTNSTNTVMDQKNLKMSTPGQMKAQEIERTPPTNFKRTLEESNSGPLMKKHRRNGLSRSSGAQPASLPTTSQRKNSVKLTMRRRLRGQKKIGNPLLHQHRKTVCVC

Compound | IC50 [1] [nM] | IC50 [2] [nM]
Cc1ncc(Cl)cc1N[C@@H](C)c1ccc(C(=O)N[C@@H](CC2CCCC2)C(=O)NC23CC(C#N)(C2)C3)s1 [Compound 31, (2S)-2-({5-[(1S)-1-[(5-chloro-2-methylpyridin-3-yl)amino]ethyl]thiophen-2-yl}formamido)-N-{3-cyanobicyclo[1.1.1]pentan-1-yl}-3-cyclopentylpropanamide] | 16 | 10
Cc1ncc(Cl)cc1N[C@@H](C)c1ccc(C(=O)N[C@@H](CC2CCCC2)C(=O)NC2(C#N)CC2)s1 [Compound 34, (2S)-2-({5-[(1S)-1-[(5-chloro-2-methylpyridin-3-yl)amino]ethyl]thiophen-2-yl}formamido)-N-(1-cyanocyclopropyl)-3-cyclopentylpropanamide] | 34 | 17
COc1ncc(Cl)cc1N[C@H](C)c1ccc(C(=O)N[C@@H](CC2CCCC2)C(=O)N[C@@H]2CC2(F)F)s1 [Compound 36, (2S)-2-({5-[(1R)-1-[(5-chloro-2-methoxypyridin-3-yl)amino]ethyl]thiophen-2-yl}formamido)-3-cyclopentyl-N-[(1R)-2,2-difluorocyclopropyl]propanamide] | 10 | 8
CC[C@H](Nc1cc(Cl)cnc1C)c1ccc(C(=O)N[C@@H](CC2CCCC2)C(=O)NC2CC2)s1 [Compound 37, (2S)-2-({5-[(1S)-1-[(5-chloro-2-methylpyridin-3-yl)amino]propyl]thiophen-2-yl}formamido)-3-cyclopentyl-N-cyclopropylpropanamide] | 9 | 6
COc1ncc(Cl)cc1N[C@@H](C)c1ccc(C(=O)N[C@@H](CC2CCCC2)C(=O)NC2CC2)s1 [Compound 38, (2S)-2-({5-[(1S)-1-[(5-chloro-2-methoxypyridin-3-yl)amino]ethyl]thiophen-2-yl}formamido)-3-cyclopentyl-N-cyclopropylpropanamide] | 9 | 7
COc1ncc(Cl)cc1N[C@@H](C)c1ccc(C(=O)N[C@@H](CC2CCCC2)C(=O)N[C@@H]2CC2(F)F)s1 [Compound 40, (2S)-2-({5-[(1S)-1-[(5-chloro-2-methoxypyridin-3-yl)amino]ethyl]thiophen-2-yl}formamido)-3-cyclopentyl-N-[(1R)-2,2-difluorocyclopropyl]propanamide] | 181 | 149
Cc1ncc(Cl)cc1N[C@@H](C)c1ccc(C(=O)N[C@@H](CC2CCCC2)C(=O)Nc2cccc(S(C)(=O)=O)c2)s1 [Compound 41, (2S)-2-({5-[(1S)-1-[(5-chloro-2-methylpyridin-3-yl)amino]ethyl]thiophen-2-yl}formamido)-3-cyclopentyl-N-(3-methanesulfonylphenyl)propanamide] | 7 | 5
Cc1ncc(Cl)cc1N[C@@H](C)c1ccc(C(=O)N[C@@H](CC2CCCC2)C(=O)NC2(C(F)(F)F)CC2)s1 [Compound 42, (2S)-2-({5-[(1S)-1-[(5-chloro-2-methylpyridin-3-yl)amino]ethyl]thiophen-2-yl}formamido)-3-cyclopentyl-N-[1-(trifluoromethyl)cyclopropyl]propanamide] | 15 | 12
Cc1ncc(Cl)cc1N[C@@H](C)c1ccc(C(=O)N[C@@H](CC2CCCC2)C(=O)NC23CC(C(=O)O)(C2)C3)s1 [Compound 43, 3-[(2S)-2-({5-[(1S)-1-[(5-chloro-2-methylpyridin-3-yl)amino]ethyl]thiophen-2-yl}formamido)-3-cyclopentylpropanamido]bicyclo[1.1.1]pentane-1-carboxylic acid] | 16 | 13
CNC(=O)C12CC(NC(=O)[C@H](CC3CCCC3)NC(=O)c3ccc([C@H](C)Nc4cc(Cl)cnc4C)s3)(C1)C2 [Compound 44, 3-[(2S)-2-({5-[(1S)-1-[(5-chloro-2-methylpyridin-3-yl)amino]ethyl]thiophen-2-yl}formamido)-3-cyclopentylpropanamido]-N-methylbicyclo[1.1.1]pentane-1-carboxamide] | 14 | 12
Cc1ncc(Cl)cc1N[C@@H](C)c1ccc(C(=O)N[C@@H](CC2CCCC2)C(=O)NC23CC(C(N)=O)(C2)C3)s1 [Compound 45, 3-[(2S)-2-({5-[(1S)-1-[(5-chloro-2-methylpyridin-3-yl)amino]ethyl]thiophen-2-yl}formamido)-3-cyclopentylpropanamido]bicyclo[1.1.1]pentane-1-carboxamide] | 9 | 7
CC(c1ccc(C(=O)N[C@@H](CC2CCCC2)C(=O)NC2CC2)s1)N1CCc2cc(F)c(Cl)cc21 (stereo partly drawn) [Compound 46, (2S)-2-({5-[1-(6-chloro-5-fluoro-2,3-dihydro-1H-indol-1-yl)ethyl]thiophen-2-yl}formamido)-3-cyclopentyl-N-cyclopropylpropanamide] | 23 | 16

Now from value to compound:

IC50 [1] [nM] | IC50 [2] [nM] | Compound
10 | 6 | Cc1ncc(Cl)cc1N[C@@H](C)c1ccc(C(=O)N[C@@H](CC2CCCC2)C(=O)NC2COC2)s1 [Compound 27, (2S)-2-({5-[(1S)-1-[(5-chloro-2-methylpyridin-3-yl)amino]ethyl]thiophen-2-yl}formamido)-3-cyclopentyl-N-(oxetan-3-yl)propanamide]
7 | 4 | Cc1ncc(Cl)cc1N[C@@H](C)c1ccc(C(=O)N[C@@H](CC2CCCC2)C(=O)N[C@H]2C[C@@H](F)C2)s1 [Compound 28, (2S)-2-({5-[(1S)-1-[(5-chloro-2-methylpyridin-3-yl)amino]ethyl]thiophen-2-yl}formamido)-3-cyclopentyl-N-[(1s,3s)-3-fluorocyclobutyl]propanamide]
7 | 3 | Cc1ncc(Cl)cc1N[C@@H](C)c1ccc(C(=O)N[C@@H](CC2CCCC2)C(=O)N[C@H]2C[C@H](F)C2)s1 [Compound 29, (2S)-2-({5-[(1S)-1-[(5-chloro-2-methylpyridin-3-yl)amino]ethyl]thiophen-2-yl}formamido)-3-cyclopentyl-N-[(1r,3r)-3-fluorocyclobutyl]propanamide]
10 | 6 | Cc1ncc(Cl)cc1N[C@@H](C)c1ccc(C(=O)N[C@@H](CC2CCCC2)C(=O)N[C@@H]2C[C@@H]2F)s1 [Compound 30, (2S)-2-({5-[(1S)-1-[(5-chloro-2-methylpyridin-3-yl)amino]ethyl]thiophen-2-yl}formamido)-3-cyclopentyl-N-[(1R,2S)-2-fluorocyclopropyl]propanamide]
73 | 48 | Cc1ncc(Cl)cc1N[C@@H](C)c1ccc(C(=O)N[C@@H](CC2CCCC2)C(=O)NC2CCN(C)CC2)s1 [Compound 32, (2S)-2-({5-[(1S)-1-[(5-chloro-2-methylpyridin-3-yl)amino]ethyl]thiophen-2-yl}formamido)-3-cyclopentyl-N-(1-methylpiperidin-4-yl)propanamide]
11 | 8 | Cc1ncc(Cl)cc1N[C@@H](C)c1ccc(C(=O)N[C@@H](CC2CCCC2)C(=O)NC2CC(C#N)C2)s1 (stereo partly drawn) [Compound 33, (2S)-2-({5-[(1S)-1-[(5-chloro-2-methylpyridin-3-yl)amino]ethyl]thiophen-2-yl}formamido)-N-(3-cyanocyclobutyl)-3-cyclopentylpropanamide]
332 | 122 | CC[C@@H](Nc1cc(Cl)cnc1C)c1ccc(C(=O)N[C@@H](CC2CCCC2)C(=O)NC2CC2)s1 [Compound 39, (2S)-2-({5-[(1R)-1-[(5-chloro-2-methylpyridin-3-yl)amino]propyl]thiophen-2-yl}formamido)-3-cyclopentyl-N-cyclopropylpropanamide]
